Measurements taken from patent US8486996B2, “Aroylfuranes and aroylthiophenes” (Basilea Pharmaceutica AG, priority 2006, dated 2013).
Where two headings read alike, the source gives them in different places.

How the values were obtained:
[1] = Hoechst 33342 nuclear staining (48 h read-out); type: cell-based
In short: (§1)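 Adherent cells pre-spread 24 h before dosing, suspension cells dosed at seeding; compounds at 0.001 μM-10 μM final, 48 h at culture conditions. Hoechst 33342 (2-5 μg/ml) added for 30 min, then fluorescence microscopy scoring of apoptotic nuclear fraction and apoptosis-specific morphology, reported as scores A-D.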

[2] = system: tumor cells; assay: Hoechst 33342 nuclear staining (48 h read-out); type: cell-based
In short: as §1

[3] = system: H460; assay: Colony Forming Units (read-out 6 days), H460; type: cell-based, human; conditions: colonies containing more than 30 cells, read-out: Colony Forming Units, score based on IC50, H460
Experimental: (§2) Appropriate numbers of cells (100-150 cells, dependent on the cell type) are being seeded out in 1 ml complete medium into 6-well plates and allowed to attach for 48 h. The compounds are added after 48 h in 500 μl solution. The concentrations are in the range of 0.001 μM-3 μM. Control plates receive the same volume of medium containing the appropriate amount of DMSO. The plates are incubated for 5-7 days at cell culture conditions and subsequently scored for growth of colonies (containing more than 30 cells) by using a microscope.

[4] = MTS proliferation assay (72 h read-out); type: cell-based; conditions: MRC5 cells
In short: (§3)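 Viability was read by MTS absorbance at 492 nm after 3 h with reagent. Before that, cells plated a day earlier at 1.5×10^3–10^4 per well had been incubated with test compound at final concentrations of 0.001–10 μM for 72 h; activity is given as category scores A–D.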

[5] = system: tumor cells; assay: MTS proliferation assay (72 h read-out); type: cell-based
In short: as §3

[6] = Mitochondrial membrane potential, JC-1 (read-out 48 h); type: cell-based; conditions: PBL, JC-1, 48 h
In short: (§4)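 Tumor cells were treated with test compounds (adherent cells after 24 h of attachment, suspension cells immediately), medium holding up to 5% DMSO. After 48 h, JC-1 (2-5 μg/ml in added medium) was applied for 30 min. Fluorescence microscopy (FITC/TRITC filters) scored the fraction of cells with dissipated mitochondrial membrane potential as categories A-D.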

[7] = system: tumor cells; assay: as above; type: cell-based; conditions: JC-1, 48 h
In short: as §4

[8] = system: HeLa; assay: Colony Forming Units (read-out 6 days), HeLa; type: cell-based, human; conditions: colonies containing more than 30 cells, read-out: Colony Forming Units, score based on IC50, HeLa
Experimental: as §2

[9] = Homo sapiens, MRC5 cells, read-out: Hoechst 33342 nuclear staining EC50, MRC5
[10] = PBL, read-out: Hoechst 33342 nuclear staining EC50, PBL
[11] = Homo sapiens, HeLa cells, read-out: Hoechst 33342 nuclear staining EC50, HeLa
[12] = Homo sapiens, Jurkat cells, read-out: Hoechst 33342 nuclear staining EC50, Jurkat
[13] = Jily cells, read-out: Hoechst 33342 nuclear staining EC50, Jily
[14] = Homo sapiens, HT-1080, HT1080 cells, read-out: MTS proliferation assay IC50, HT1080
[15] = Homo sapiens, HeLa cells, read-out: MTS proliferation assay IC50, HeLa
[16] = Homo sapiens, Jurkat cells, read-out: MTS proliferation assay IC50, Jurkat
[17] = Jily cells, read-out: MTS proliferation assay IC50, Jily
[18] = Homo sapiens, HeLa cells, read-out: Mitochondrial membrane potential (read-out 48 h) HeLa
[19] = Homo sapiens, Jurkat cells, read-out: Mitochondrial membrane potential (read-out 48 h) Jurkat
[20] = Homo sapiens, MCF7 cells, read-out: Mitochondrial membrane potential (read-out 48 h) MCF7
[21] = Jily cells, read-out: Mitochondrial membrane potential (read-out 48 h) Jily
[22] = MRC5 cells, read-out: Hoechst 33342 nuclear staining EC50, MRC5
[23] = HeLa cells, read-out: Hoechst 33342 nuclear staining EC50, HeLa
[24] = Jurkat cells, read-out: Hoechst 33342 nuclear staining EC50, Jurkat
[25] = HT1080 cells, read-out: MTS proliferation assay IC50, HT1080
[26] = HeLa cells, read-out: MTS proliferation assay IC50, HeLa
[27] = Jurkat cells, read-out: MTS proliferation assay IC50, Jurkat
[28] = HeLa cells, read-out: Mitochondrial membrane potential (read-out 48 h) HeLa
[29] = Jurkat cells, read-out: Mitochondrial membrane potential (read-out 48 h) Jurkat
[30] = MCF7 cells, read-out: Mitochondrial membrane potential (read-out 48 h) MCF7

| Compound | EC50 [1, 10] | EC50 [2, 11] | EC50 [2, 12] | EC50 [2, 13] | IC50 ([3]; Homo sapiens, NCI-H460, 144 h) | IC50 [5, 17] | EC50 [6] | EC50 [7, 18] | EC50 [7, 19] | EC50 [7, 20] | EC50 [7, 21] | IC50 ([8]; Homo sapiens, 144 h) | EC50 [2, 23] | EC50 [2, 24] | IC50 [3] | EC50 [7, 28] | EC50 [7, 29] | EC50 [7, 30] | EC50 [1, 9] | EC50 [1, 22] | other results |
| --- | --- | --- | --- | --- | --- | --- | --- | --- | --- | --- | --- | --- | --- | --- | --- | --- | --- | --- | --- | --- | --- |
| C=CCOc1ccc(OC)cc1C(=O)c1oc2ccc(Cl)cc2c1N [Example 4, 3-Amino-5-chloro-2-(2-allyloxy-5-methoxybenzoyl)-benzofuran] | > 1000 nM | 10 to 100 nM | 10 to 100 nM | 10 to 100 nM | 10 to 100 nM | – | > 1000 nM | 10 to 100 nM | 10 to 100 nM | 10 to 100 nM | 10 to 100 nM | 10 to 100 nM | – | – | – | – | – | – | 10 to 100 nM | – | – |
| COCCOc1ccccc1C(=O)c1oc2ccc(Cl)cc2c1N [Example 6] | > 1000 nM | – | – | 100 to 1000 nM | – | 100 to 1000 nM | > 1000 nM | – | – | – | 100 to 1000 nM | – | 100 to 1000 nM | 100 to 1000 nM | 100 to 1000 nM | 100 to 1000 nM | 100 to 1000 nM | 100 to 1000 nM | – | > 1000 nM | IC50 [4]: > 1000 nM; IC50 [5, 25]: > 1000 nM; IC50 [5, 26]: 100 to 1000 nM; IC50 [5, 27]: 100 to 1000 nM; IC50 [8]: 100 to 1000 nM |
| C#CCOc1ccccc1C(=O)c1oc2ccc(Cl)cc2c1N [Example 8] | > 1000 nM | – | – | 100 to 1000 nM | – | 10 to 100 nM | > 1000 nM | – | – | – | 100 to 1000 nM | – | 100 to 1000 nM | 10 to 100 nM | 100 to 1000 nM | 100 to 1000 nM | 100 to 1000 nM | 100 to 1000 nM | – | > 1000 nM | IC50 [4]: 100 to 1000 nM; IC50 [5, 25]: 100 to 1000 nM; IC50 [5, 26]: 100 to 1000 nM; IC50 [5, 27]: 10 to 100 nM; IC50 [8]: 100 to 1000 nM |
| COc1ccc2oc(C(=O)c3cc(F)ccc3N3CCCCC3)cc2c1 [Example 96] | > 1000 nM | – | – | 100 to 1000 nM | – | – | > 1000 nM | – | – | – | 10 to 100 nM | – | 100 to 1000 nM | 100 to 1000 nM | 10 to 100 nM | 10 to 100 nM | 10 to 100 nM | 10 to 100 nM | – | 100 to 1000 nM | IC50 [8]: 10 to 100 nM |
| CCOc1ccc2oc(C(=O)c3cc(F)ccc3N3CCOCC3)cc2c1 [Example 108] | > 1000 nM | – | – | 10 to 100 nM | – | 10 to 100 nM | > 1000 nM | – | – | – | 10 to 100 nM | – | 10 to 100 nM | 10 to 100 nM | – | 100 to 1000 nM | 10 to 100 nM | 100 to 1000 nM | – | 10 to 100 nM | IC50 [4]: 10 to 100 nM; IC50 [5, 25]: 10 to 100 nM; IC50 [5, 26]: 10 to 100 nM; IC50 [5, 27]: 10 to 100 nM |

Continued, in another order:

| EC50 [1, 10] | EC50 [2, 11] | EC50 [2, 12] | EC50 [2, 13] | IC50 ([3]; Homo sapiens, NCI-H460, 144 h) | IC50 [5, 17] | EC50 [6] | EC50 [7, 18] | EC50 [7, 19] | EC50 [7, 20] | EC50 [7, 21] | IC50 ([8]; Homo sapiens, 144 h) | EC50 [2, 23] | EC50 [2, 24] | IC50 [3] | EC50 [7, 28] | EC50 [7, 29] | EC50 [7, 30] | Compound | EC50 [1, 9] | EC50 [1, 22] | other results |
| --- | --- | --- | --- | --- | --- | --- | --- | --- | --- | --- | --- | --- | --- | --- | --- | --- | --- | --- | --- | --- | --- |
| > 1000 nM | 10 to 100 nM | < 10 nM | 10 to 100 nM | 10 to 100 nM | 10 to 100 nM | > 1000 nM | 10 to 100 nM | < 10 nM | 100 to 1000 nM | 10 to 100 nM | 10 to 100 nM | – | – | – | – | – | – | CCOc1ccccc1C(=O)c1oc2ccc(Cl)cc2c1N [Example 2, 3-Amino-5-chloro-2-(2-ethoxybenzoyl)-benzofuran] | 10 to 100 nM | – | IC50 ([4]; Homo sapiens): 10 to 100 nM; IC50 [5, 14]: 10 to 100 nM; IC50 [5, 15]: 10 to 100 nM; IC50 [5, 16]: < 10 nM |
| > 1000 nM | < 10 nM | < 10 nM | < 10 nM | < 10 nM | < 10 nM | > 1000 nM | < 10 nM | < 10 nM | 10 to 100 nM | < 10 nM | < 10 nM | – | – | – | – | – | – | CCOc1ccc([N+](=O)[O-])cc1C(=O)c1oc2ccc(Cl)cc2c1N [Example 3, 3-Amino-5-chloro-2-(2-ethoxy-5-nitrobezoyl)-benzofuran] | < 10 nM | – | IC50 ([4]; Homo sapiens): < 10 nM; IC50 [5, 14]: < 10 nM; IC50 [5, 15]: < 10 nM; IC50 [5, 16]: < 10 nM |
